Patent publication US8022055B2, “Betulinic acid derivatives” (Dabur Pharma Limited, priority 2005, dated 2011)

Legend:
Miapaca = assay: three day MTT cytotoxicity assay, Miapaca; format: cell-based, human; conditions: for Specific Index (SI) for cell lines Miapaca: ratio of IC50 of NIH 3T3 cells to Miapaca
Protocol: (§1) A number of compounds listed in Table-3 were tested for cytotoxicity against prostate, lung, laryngeal, pancreas, breast, colon and ovarian cancer, leukemia and lymphoma, human tumor cell lines. Briefly, a three day MTT cytotoxicity assay was performed, which is based on the principle of uptake of MTT (3-(4,5-dimethylthiazol-2-yl)-2,5-diphenyl tetrazolium bromide), a tetrazolium salt, by the metabolically active cells where it is metabolized by active mitochondria into a blue colored formazan product that is read spectrophotometrically. MIT was dissolved in phosphate buffered saline with a pH of 7.4 to obtain an MIT concentration of 5 mg/ml; the resulting mixture was filtered through a 0.22-micron filter to sterilize and remove a small amount of insoluble residue. For each type of tumor cell, 10,000 to 15,000 cells were seeded in a 96-well culture plate and incubated with the individual betulinic acid derivatives in a CO2 incubator for a total of 72 hours. Control cells not treated with the betulinic acid derivatives were similarly incubated. The assay was terminated by adding 100 μg (20 μl) of MIT to each well then incubating for additional one hour, and finally adding 50 μl of 10% SDS-0.01N HCl to each well to lyse the cells and dissolve formazan. After incubating for one hour, the plate was read spectrophotometrically at 540 nm and the percentage of cytotoxicity calculated using the following formula: Cytotoxicity percentage=100×[1−(X/R1)], where X=(absorbance of treated sample at 540 nm)−(absorbance of blank at 540 nm) R1=absorbance of control sample at 540 nm. The IC50 Values of the cytotoxicity defined as the concentration at which 50% of the cells are killed in vitro was calculated for each cell line treated with each of the betulinic acid derivatives.

NIH 3T3 cells = assay: NIH3T3 cytotoxicity test (72 h MTT assay); format: cell-based; conditions: NIH3T3, 72 hours
Protocol: The cytotoxic effect of chemicals upon NIH 3T3 cells in culture is measured by cell metabolism determination using the previously described MIT assay. Healthy NIH 3T3 cells (an established cell-line), when maintained in culture continuously divide and multiply over time. The basis of this test is that a cytotoxic chemical (regardless of site or mechanism of action) will interfere with this process and, thus, result in a reduction of the growth rate as reflected by cell number. The degree of inhibition of growth, related to the concentration of the test compound, provides an indication of toxicity.
The NIH 3T3 cells are maintained in culture and exposed to test compounds over a range of concentrations and the number of viable cells determined after 72 hours exposure by MIT assay. The number of cells in the presence of test chemicals are compared to that observed in control cultures and the percent inhibition of growth calculated. The IC50 concentration (i.e. the concentration producing 50% inhibition of growth) is determined and expressed as μg/ml. A ratio of IC50 of NIH 3T3 cells to tumor cells is an indicator of predicted toxicity of the molecule and is represented as “Safety Index”. The higher the value, the better is the predicted safety of the molecule.

A549 = assay: three day MTT cytotoxicity assay, A549; format: cell-based, human; conditions: for Specific Index (SI) for cell lines A549: ratio of IC50 of NIH 3T3 cells to A549
Protocol: as §1

HBL100 = assay: three day MTT cytotoxicity assay, HBL100; format: cell-based, human; conditions: for Specific Index (SI) for cell lines HBL100: ratio of IC50 of NIH 3T3 cells to HBL100
PA1 = assay: three day MTT cytotoxicity assay, PA1; format: cell-based, human; conditions: for IC50 for cell lines PA1: PA1, 72 hours
Protocol: Briefly, a three day MTT cytotoxicity assay was performed, which is based on the principle of uptake of MTT (3-(4,5-dimethylthiazol-2-yl)-2,5-diphenyl tetrazolium bromide), a tetrazolium salt, by the metabolically active cells where it is metabolized by active mitochondria into a blue colored formazan product that is read spectrophotometrically. MIT was dissolved in phosphate buffered saline with a pH of 7.4 to obtain an MIT concentration of 5 mg/ml; the resulting mixture was filtered through a 0.22-micron filter to sterilize and remove a small amount of insoluble residue. For each type of tumor cell, 10,000 to 15,000 cells were seeded in a 96-well culture plate and incubated with the individual betulinic acid derivatives in a CO2 incubator for a total of 72 hours. Control cells not treated with the betulinic acid derivatives were similarly incubated. The assay was terminated by adding 100 μg (20 μl) of MIT to each well then incubating for additional one hour, and finally adding 50 μl of 10% SDS-0.01N HCl to each well to lyse the cells and dissolve formazan. After incubating for one hour, the plate was read spectrophotometrically at 540 nm and the percentage of cytotoxicity calculated using the following formula: Cytotoxicity percentage=100×[1−(X/R1)], where X=(absorbance of treated sample at 540 nm)−(absorbance of blank at 540 nm) R1=absorbance of control sample at 540 nm. The IC50 Values of the cytotoxicity defined as the concentration at which 50% of the cells are killed in vitro was calculated for each cell line treated with each of the betulinic acid derivatives.

DU145 = assay: three day MTT cytotoxicity assay, DU145; format: cell-based, human; conditions: for IC50 for cell lines DU145: DU145, 72 hours
SW620 = assay: three day MTT cytotoxicity assay, SW620; format: cell-based, human; conditions: for IC50 for cell lines SW620: SW620, 72 hours
K562 = assay: three day MTT cytotoxicity assay, K562; format: cell-based, human; conditions: for Specific Index (SI) for cell lines K562: ratio of IC50 of NIH 3T3 cells to K562
Protocol: as §1

Compound | IC50 for cell lines Miapaca (Miapaca; Miapaca, 72 hours, MTT) [µg/mL] | IC50 for cell lines NIH3T3 (NIH 3T3 cells) [µg/mL] | IC50 for cell lines A549 (A549; A549, 72 hours, MTT) [µg/mL] | IC50 for cell lines HBL100 (HBL100; HBL100, 72 hours, MTT) [µg/mL] | IC50 for cell lines PA1 (PA1) [µg/mL] | IC50 for cell lines DU145 (DU145) [µg/mL] | IC50 for cell lines SW620 (SW620) [µg/mL] | IC50 for cell lines K562 (K562; K562, 72 hours, MTT) [µg/mL] | Specific Index (SI) for cell lines Miapaca (Miapaca) | Specific Index (SI) for cell lines A549 (A549) | Specific Index (SI) for cell lines HBL100 (HBL100) | Specific Index (SI) for cell lines K562 (K562) | IC50 (Miapaca; Homo sapiens, MIA PaCa-2, Miapaca, 72 hours, MTT, read-out: IC50 for cell lines Miapaca) [µg/mL] | IC50 (NIH 3T3 cells; Mus musculus, read-out: IC50 for cell lines NIH3T3) [µg/mL] | IC50 (A549; Homo sapiens, A549, 72 hours, MTT, read-out: IC50 for cell lines A549) [µg/mL] | IC50 (HBL100; Homo sapiens, HBL-100, HBL100, 72 hours, MTT, read-out: IC50 for cell lines HBL100) [µg/mL] | IC50 (PA1; Homo sapiens, PA-1, PA1, 72 hours, read-out: IC50 for cell lines PA1) [µg/mL] | IC50 (DU145; Homo sapiens, DU-145, DU145, 72 hours, read-out: IC50 for cell lines DU145) [µg/mL] | IC50 (SW620; Homo sapiens, SW-620, SW620, 72 hours, read-out: IC50 for cell lines SW620) [µg/mL] | IC50 (K562; Homo sapiens, K562, 72 hours, MTT, read-out: IC50 for cell lines K562) [µg/mL]
28-O-Pivaloyoxymethyl-2,3-didehydroindolo[2′,3′:2,3]betulinate [Compound 17] | >20 | >20 | >20 | >20 | >20 | >20 | >20 | >20 | – | – | – | – | – | – | – | – | – | – | – | –
C=C(C)[C@@H]1CC[C@]2(C(=O)O)CC[C@]3(C)[C@H](CC[C@@H]4[C@@]5(C)Cc6c([nH]c7ccccc67)C(C)(C)[C@@H]5CC[C@]43C)[C@@H]12 [Compound 1, 2,3-Didehydroindolo[2′,′:2,3]betulinic acid] | 6.7 ± 0.59 | 6.9 ± 0.76 | 7.6 ± 0.57 | 10.3 ± 0.9 | 6.01 | 8.86 | 5.151 | 10.05 ± 0.61 | 1.029 | 0.907 | 0.669 | 0.68 | – | – | – | – | – | – | – | –
CC(C)[C@@H]1CC[C@]2(C(=O)O)CC[C@]3(C)C(CCC4[C@@]5(C)Cc6c([nH]c7ccccc67)C(C)(C)C5CC[C@]43C)C12 (some centres unmarked) [Compound 2, 2,3-Didehydro-20,29-dihydroindolo[2′,3′:2,3]betulinic acid] | >20 | >20 | >20 | >20 | >20 | >20 | >20 | 15.07 ± 2.15 | – | – | – | – | – | – | – | – | – | – | – | –
CC(C)[C@@H]1CC[C@]2(C(=O)O)CC[C@]3(C)[C@H](CC[C@@H]4[C@@]5(C)Cc6c([nH]c7ccc(Cl)cc67)C(C)(C)[C@@H]5CC[C@]43C)[C@@H]12 [Compound 6, 5′-Chloro-2,3-didehydro-20,29-dihydroindolo[2′,′:2,3]betulinic acid] | 15.19 ± 1.06 | 19.03 ± 0.21 | 8.8 ± 0.74 | >20 | 6.6 | 6.5 | 5.9 | >20 | 1.252 | 2.163 | <0.951 | <0.952 | – | – | – | – | – | – | – | –
C=C(C)[C@@H]1CC[C@]2(C(=O)O)CC[C@]3(C)[C@H](CC[C@@H]4[C@@]5(C)Cc6c([nH]c7c(Cl)cccc67)C(C)(C)[C@@H]5CC[C@]43C)[C@@H]12 [Compound 9, 7′-Chloro-2,3-didehydroindolo[2′,′:2,3]betulinic acid] | 11.6 ± 0.49 | 11.8 ± 0.19 | 8.7 ± 0.19 | 11.8 ± 0.35 | 6.39 | 11.66 | 2.008 | 9.26 ± 1.6 | 1.017 | 1.356 | 1 | 1.274 | – | – | – | – | – | – | – | –
C=C(C)[C@@H]1CC[C@]2(C(=O)O)CC[C@]3(C)[C@H](CC[C@@H]4[C@@]5(C)Cc6c([nH]c7ccc(OC)cc67)C(C)(C)[C@@H]5CC[C@]43C)[C@@H]12 [Compound 10, 2,3-Didehydro-5′-methoxyindolo[2′,′:2,3]betulinic acid] | 6.4 ± 0.44 | 7.5 ± 0.48 | 8.2 ± 0.14 | 12.8 ± 0.39 | 5.8 | 5.75 | 8.4 | >20 | 1.172 | 0.915 | 0.586 | <0.38 | – | – | – | – | – | – | – | –
C=C(C)[C@@H]1CC[C@]2(C(=O)O)CC[C@]3(C)C(CCC4[C@@]5(C)Cc6c(oc7ccccc67)C(C)(C)C5CC[C@]43C)C12 (some centres unmarked) [Compound 11, 2,3-Didehydrobenzfurano[2′,3′:2,3]betulinic acid] | >20 | 19.03 ± 0.79 | >20 | >20 | >20 | >20 | >20 | >20 | <0.952 | <0.952 | <0.952 | <0.952 | – | – | – | – | – | – | – | –
C=C(C)[C@@H]1CC[C@]2(C(=O)OCc3ccccc3)CC[C@]3(C)C(CCC4[C@@]5(C)Cc6c([nH]c7ccccc67)C(C)(C)C5CC[C@]43C)C12 (some centres unmarked) [Compound 15, 28-O-Benzyl-2,3-didehydro[2′,3′:2,3]indolobetulinate] | >20 | >20 | >20 | >20 | >20 | >20 | >20 | >20 | – | – | – | – | – | – | – | – | – | – | – | –
CC(C)[C@@H]1CC[C@]2(C(=O)OCc3ccccc3)CC[C@]3(C)C(CCC4[C@@]5(C)Cc6c([nH]c7ccccc67)C(C)(C)C5CC[C@]43C)C12 (some centres unmarked) [Compound 16, 28-O-Benzyl-2,3-didehydro-20,29-dihydro[2′,3′:2,3]indolobetulinate] | >20 | >20 | >20 | >20 | >20 | >20 | >20 | >20 | – | – | – | – | – | – | – | – | – | – | – | –
C=CCOC(=O)[C@]12CC[C@@H](C(=C)C)C1C1CCC3[C@@]4(C)Cc5c([nH]c6ccccc56)C(C)(C)C4CC[C@@]3(C)[C@]1(C)CC2 (some centres unmarked) [Compound 18, 28-O-Allyl-2,3-didehydroindolo[2′,3′:2,3]betulinate] | >20 | >20 | >20 | >20 | >20 | >20 | >20 | >20 | – | – | – | – | – | – | – | – | – | – | – | –
C=C(C)[C@@H]1CC[C@]2(C(=O)OCc3ccccc3)CC[C@]3(C)C(CCC4[C@@]5(C)Cc6c([nH]c7ccc(Cl)cc67)C(C)(C)C5CC[C@]43C)C12 (some centres unmarked) [Compound 19, 28-O-Benzyl-5′-chloro-2,3-didehydroindolo[2′,′:2,3]betulinate] | >20 | >20 | >20 | >20 | >20 | >20 | >20 | >20 | – | – | – | – | – | – | – | – | – | – | – | –
C=C(C)[C@@H]1CC[C@]2(C(=O)NCC(=O)OC)CC[C@]3(C)C(CCC4[C@@]5(C)Cc6c([nH]c7ccccc67)C(C)(C)C5CC[C@]43C)C12 (some centres unmarked) [Compound 21, 28-N-Methylglycinate-2,3-didehydroindolo[2′,3′:2,3]betulinamide] | – | – | – | – | – | – | – | – | – | – | – | – | > 20 | > 20 | > 20 | > 20 | > 20 | > 20 | > 20 | > 20
